The values that follow come from US8916599B2, “1H-benz imidazole-5-carboxamides as anti-inflammatory agents” (Orexo AB, priority 2008, dated 2014).

The assay concerns the target T1, recombinant human mPGES-1 (Homo sapiens, UniProt O14684).
T1 construct: made in house; host or cells: Rosetta E. coli (microsomal/membrane fraction)
T1 sequence (O14684 1-152): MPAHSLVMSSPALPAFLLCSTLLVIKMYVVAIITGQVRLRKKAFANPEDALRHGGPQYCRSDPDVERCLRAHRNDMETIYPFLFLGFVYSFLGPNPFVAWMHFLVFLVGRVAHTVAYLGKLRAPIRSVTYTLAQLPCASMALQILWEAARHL
Nature of the assay: mPGES-1 inhibition test (microsomes, PGH2 substrate, HTRF detection of PGE2). The class given is biochemical. The settings on record: inhibition of mPGES-1 at 10 μM. Here is the method:
Microsomes from Rosetta E. coli bacteria expressing recombinant human mPGES-1 is dissolved in 0.1 M KPi pH 7.4 buffer containing 2.5 mM GSH. 50 μl of the enzyme is subsequently dispensed in a 384-well plate. 0.5 μl of the inhibitor dissolved in DMSO at is thereafter added to each well and incubated for 25 minutes at room temperature. Subsequently, 2 μl of PGH2 dissolved in an appropriate solvent is added to each well and after one minute the acidified stop solution containing FeCl2 is added. 4 μl of the total volume is transferred to a separate plate and diluted 750-fold in two separate steps before HTRF detection of PGE2.
The HTRf detection is performed by the use of a commercially available kit from CisBio essentially according to the manufacturer's protocol. Briefly, 10 μl of the diluted sample is transferred to a white 384-well plate. 5 μl of d2 and 5 μl Eu3+-Cryptate labeled anti-PGE2 is added to each well containing samples by the use of a Multidrop. The plate is covered with a plastic self-adhesive film, centrifuged at 1200 rpm for 1 minute and subsequently stored at +4° C. over night.
After over night incubation the fluorescence is measured by the use of an appropriate microplate reader. The fluorescence of europium cryptate, and d2 are measured using the following excitation and emission wavelength, europium cryptate: λmax^ex=307 nm, λmax^em=620 nm and d2: λmax^ex=620 nm, λmax^em=665 nm), respectively. The extent of the specific FRET is measured as a ratio of the emission intensity at 665 nm vs. that at 620 nm. A standard curve using synthetic PGE2 is used to quantify the amount of PGE2 in unknown samples.
As for `Cn1c(Nc2cc(C(F)(F)F)ccc2Cl)nc2cc(C(=O)Nc3ccc(Br)cc3)ccc21` [Example 423, N-(4-Bromophenyl)-2-(2-chloro-5-trifluoromethyl-phenylamino)-1-methyl-1H-benzimidazole-5-carboxamide], the inhibition (in general, the change of the read-out against control, counted positive when it falls) at 10 µM was 100%. The result for `COc1cc2c(cc1C(=O)Nc1cc(Cl)c(C)cn1)nc(Nc1c(Cl)cccc1Cl)n2C` [Example 634, 2-(2,6-Dichlorophenylamino)-N-(4-chloro-5-methyl-pyridin-2-yl)-6-methoxy-1-methyl-1H-benzimidazole-5-carboxamide] reads 97%. To `Cn1c(Nc2c(Cl)cccc2Cl)nc2cc(C(=O)NC3CCOCC3)ccc21` [Example 252, 2-(2,6-Dichloro-phenylamino)-1-methyl-1H-benzimidazole-5-carboxylic acid (tetrahydro-pyran-4-yl)-amide] belongs 68%; to `O=C(Nc1cc(Cl)ccn1)c1ccc2c(c1)nc(Nc1c(Cl)cccc1Cl)n2CCC(=O)N1CCOCC1` [Example 264, 2-(2,6-Dichloro-phenylamino)-1-(3-morpholin-4-yl-3-oxo-propyl)-1H-benzimidazole-5-carboxylic acid (4-chloro-pyridin-2-yl)-amide], 90%. To `CCCC[C@H](C)NC(=O)c1cc2nc(Nc3c(Cl)cccc3Cl)n(C)c2cc1F` [Example 450, (S)-2-(2,6-Dichlorophenylamino)-6-fluoro-N-(hexan-2-yl)-1-methyl-1H-benzimidazole-5-carboxamide] belongs 99%; to `Cn1c(Nc2c(Cl)cccc2Cl)nc2cc(C(=O)NCC3CCCO3)ccc21` (centres unmarked) [Example 261, 2-(2,6-Dichloro-phenylamino)-1-methyl-1H-benzimidazole-5-carboxylic acid (tetrahydro-furan-2-ylmethyl)-amide], 92%; to `Cn1c(Nc2c(Cl)cccc2Cl)nc2cc(C(=O)NC3CCC(F)(F)CC3)ccc21` [Example 249, 2-(2,6-Dichloro-phenylamino)-1-methyl-1H-benzimidazole-5-carboxylic acid (4,4-difluoro-cyclohexyl)-amide], 96%.

On to `Cn1c(Nc2c(Cl)cccc2Cl)nc2cc(C(=O)Nc3ccc(S(C)(=O)=O)cc3)ccc21` [Example 250, 2-(2,6-Dichloro-phenylamino)-1-methyl-1H-benzimidazole-5-carboxylic acid (4-methanesulfonyl-phenyl)-amide], for which the inhibition at 10 µM came out at 73%. To `Cc1cc(Cl)cc(Cl)c1Nc1nc2cc(C(=O)Nc3ccc(Br)cc3)ccc2n1C` [Example 402, N-(4-Bromophenyl)-2-(2,4-dichloro-6-methylphenylamino)-1-methyl-1H-benzimidazole-5-carboxamide] belongs 100%; to `Cn1c(Nc2c(Cl)cccc2Cl)nc2cc(C(=O)NC3CCCCC3C(F)(F)F)ccc21` (centres unmarked) [Example 254, 2-(2,6-Dichloro-phenylamino)-1-methyl-1H-benzimidazole-5-carboxylic acid (2-trifluoromethyl-cyclohexyl)-amide], 100%. To `CCCC[C@@H](C)NC(=O)c1cc2nc(Nc3c(Cl)cccc3Cl)[nH]c2cc1F` [Example 457, (R)-2-(2,6-Dichlorophenylamino)-6-fluoro-N-(hexan-2-yl)-1H-benzimidazole-5-carboxamide] belongs 100%; to `Cn1c(Nc2c(Cl)cccc2Cl)nc2cc(C(=O)NCc3cccc(C(F)(F)F)n3)ccc21` [Example 247, 2-(2,6-Dichloro-phenylamino)-1-methyl-1H-benzimidazole-5-carboxylic acid (6-trifluoromethyl-pyridin-2-ylmethyl)-amide], 92%; to `COc1cc2[nH]c(Nc3c(Cl)ccc(Cl)c3F)nc2cc1C(=O)N[C@H]1CC[C@H](C(F)(F)F)CC1` [Example 617, 2-(3,6-Dichloro-2-fluoro-phenylamino)-6-methoxy-N-(4-trans-trifluoromethyl-cyclohex-1-yl)-1H-benzimidazole-5-carboxamide], 100%. As to `O=C(NC1Cc2ccccc2C1)c1cc2nc(Nc3c(Cl)cccc3Cl)[nH]c2cc1F` [Example 125, 2-(2,6-Dichloro-phenylamino)-6-fluoro-1H-benzimidazol-5-carboxylic acid indan-2-yl-amide], the inhibition at 10 µM came to 100%.

On to `O=C(Nc1nc2c(s1)CCCC2)c1ccc2[nH]c(Nc3c(Cl)cccc3Cl)nc2c1` [Example 79, 2-(2,6-Dichloro-phenylamino)-1H-benzimidazole-5-carboxylic acid (4,5,6,7-tetrahydro-benzothiazol-2-yl)-amide], for which the inhibition at 10 µM amounted to 100%.

As to `Cn1c(Nc2c(F)cccc2C(F)(F)F)nc2cc(C(=O)Nc3ccc(Br)cc3)ccc21` [Example 358, N-(4-Bromophenyl)-2-(2-fluoro-6-trifluoromethyl-phenylamino)-1-methyl-1H-benzimidazole-5-carboxamide], the inhibition at 10 µM came to 100%. Consider `COc1cc2[nH]c(Nc3c(Cl)cccc3Cl)nc2cc1C(=O)NCc1ncccc1Cl` [Example 630], for which the inhibition at 10 µM was 100%. On to `O=C(NC1CCCC(C(F)(F)F)C1)c1ccc2[nH]c(Nc3c(Cl)cccc3Cl)nc2c1` (centres unmarked) [Example 229, 2-(2,6-Dichloro-phenylamino)-1H-benzimidazole-5-carboxylic acid (3-trifluoromethyl-cyclohexyl)-amide], for which the inhibition at 10 µM turned out to be 91%.

As for `Cn1c(Nc2c(Cl)cccc2Cl)nc2cc(C(=O)NCc3c(C(F)(F)F)ccc[n+]3[O-])c(F)cc21` [Example 568, 2-((2-(2,6-Dichlorophenylamino)-6-fluoro-1-methyl-1H-benzimidazole-5-carboxamido)methyl)-3-trifluoromethyl-pyridine 1-oxide], the inhibition at 10 µM is 60%. Regarding `Cn1c(Nc2c(Cl)cccc2Cl)nc2cc(C(=O)Nc3cccc(S(C)(=O)=O)c3)ccc21` [Example 248, 2-(2,6-Dichloro-phenylamino)-1-methyl-1H-benzimidazole-5-carboxylic acid (3-methanesulfonyl-phenyl)-amide], the inhibition at 10 µM is 73%.

In the case of `Cn1c(Nc2c(Cl)cccc2Cl)nc2cc(C(=O)NC3CCC(F)(F)CC3)c(F)cc21` [Example 156, 2-(2,6-Dichloro-phenylamino)-6-fluoro-1-methyl-1H-benzimidazole-5-carboxylic acid (4,4-difluoro-cyclohexyl)-amide], the inhibition at 10 µM was determined as 100%. The result for `COCCn1c(Nc2c(Cl)cccc2Cl)nc2cc(C(=O)Nc3cccc(Cl)c3)ccc21` [Example 181, 2-(2,6-Dichloro-phenylamino)-1-(2-methoxy-ethyl)-1H-benzimidazole-5-carboxylic acid (3-chloro-phenyl)-amide] reads 100%; that for `CNC(=O)c1ccc(Nc2nc3cc(C(=O)Nc4ccc(Br)cc4)ccc3n2C)c(Cl)c1` [Example 540, N-(4-Bromophenyl)-2-(2-chloro-4-(methylcarbamoyl)-phenylamino)-1-methyl-1H-benzimidazole-5-carboxamide], 44%; that for `CC1CC(NC(=O)c2ccc3[nH]c(Nc4c(Cl)cccc4Cl)nc3c2)CC(C)(C)C1` (centres unmarked) [Example 218, 2-(2,6-Dichloro-phenylamino)-1H-benzimidazole-5-carboxylic acid (3,3,5-trimethyl-cyclohexyl)-amide], 100%. To `Cc1ccc(NC(=O)c2ccc3[nH]c(Nc4c(Cl)cccc4Cl)nc3c2)cc1` [Example 5, 2-(2,6-Dichloro-phenylamino)-1H-benzimidazole-5-carboxylic acid p-tolylamide] belongs 100%; to `O=C(Nc1nc2ccccc2[nH]1)c1ccc2[nH]c(Nc3c(Cl)cccc3Cl)nc2c1` [Example 80, 2-(2,6-Dichloro-phenylamino)-1H-benzimidazole-5-carboxylic acid (benzimidazol-2-yl)-amide], 92%; to `N#Cc1ccc(NC(=O)c2ccc3[nH]c(Nc4c(Cl)cccc4Cl)nc3c2)nc1` [Example 329, 2-(2,6-Dichloro-phenylamino)-1H-benzimidazole-5-carboxylic acid (5-cyano-pyridin-2-yl)-amide], 89%. The result for `Cc1nc(NC(=O)c2cc3nc(Nc4c(Cl)cccc4Cl)[nH]c3cc2F)cc2c1CCCC2` [Example 138, 2-(2,6-Dichloro-phenylamino)-6-fluoro-1H-benzimidazole-5-carboxylic acid (1-methyl-5,6,7,8-tetrahydro-isoquinolin-3-yl)-amide] reads 100%. In the case of `Cn1c(Nc2ccc(F)cc2Cl)nc2cc(C(=O)Nc3ccc(Br)cc3)ccc21` [Example 456, N-(4-Bromophenyl)-2-(2-chloro-4-fluorophenylamino)-1-methyl-1H-benzimidazole-5-carboxamide], the inhibition at 10 µM came to 100%.
